In one test the target is T1, CDK2 (Homo sapiens, UniProt P24941).
T1 construct: purchased Life Technologies (assay service)
The test can be described thus: Z'-Lyte kinase assay (Life Technologies), CDK2. It counts as biochemical. The settings on record: Table 2; co-factor cyclin A; read-out: CDK2 (calculated IC50).

For another test, the target named is T2, CDK8 (Homo sapiens, UniProt P49336).
T2 construct: purchased Life Technologies (assay service)
The experiment in a line: LanthaScreen Eu kinase assay (Life Technologies), CDK8. It counts as binding. Conditions: Table 2; co-factor cyclin C; read-out: CDK8 (calculated IC50).

For a further test, the target named is CDK5/p25 (Homo sapiens, UniProt Q00535). The experiment in a line: Z'-Lyte kinase assay (Life Technologies), CDK5/p25.
The next test concerns the target CDK9/cyclin K (Homo sapiens, UniProt P50750). The test can be described thus: LanthaScreen Eu kinase assay (Life Technologies), CDK9/cyclin K. On the technique in general: TR-FRET usually uses a lanthanide donor and a delayed reading to cut background.
Another test addresses T3, CDK7 (Homo sapiens, UniProt P50613).
T3 construct: purchased Life Technologies (assay service)
The experiment in a line: Adapta kinase assay (Life Technologies), CDK7. The test is classed as biochemical.

Another test has as its target CDK9/cyclin T1 (Homo sapiens, UniProt P50750). The test can be described thus: Adapta kinase assay (Life Technologies), CDK9/cyclin T1.

This is an account of results in patent US10906889B2, “Polycyclic inhibitors of cyclin-dependent kinase 7 (CDK7)” (Dana-Farber Cancer Institute, Inc., priority 2013, dated 2021).

pIC50: −log10 of the molar value. Like-named read-outs stand apart in the source and are kept apart here. Some results are limits rather than exact numbers.

T3 sequence (P50613 whole entry): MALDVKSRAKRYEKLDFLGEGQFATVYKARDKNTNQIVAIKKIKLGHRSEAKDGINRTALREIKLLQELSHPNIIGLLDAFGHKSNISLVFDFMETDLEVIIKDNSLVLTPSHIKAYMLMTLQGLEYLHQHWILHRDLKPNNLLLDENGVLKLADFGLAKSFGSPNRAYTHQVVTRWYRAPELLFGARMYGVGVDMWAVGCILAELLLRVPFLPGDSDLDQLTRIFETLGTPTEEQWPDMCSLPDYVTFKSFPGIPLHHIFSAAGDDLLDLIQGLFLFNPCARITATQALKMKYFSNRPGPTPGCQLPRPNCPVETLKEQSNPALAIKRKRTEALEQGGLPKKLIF
T3 sequence (P51946 whole entry partner): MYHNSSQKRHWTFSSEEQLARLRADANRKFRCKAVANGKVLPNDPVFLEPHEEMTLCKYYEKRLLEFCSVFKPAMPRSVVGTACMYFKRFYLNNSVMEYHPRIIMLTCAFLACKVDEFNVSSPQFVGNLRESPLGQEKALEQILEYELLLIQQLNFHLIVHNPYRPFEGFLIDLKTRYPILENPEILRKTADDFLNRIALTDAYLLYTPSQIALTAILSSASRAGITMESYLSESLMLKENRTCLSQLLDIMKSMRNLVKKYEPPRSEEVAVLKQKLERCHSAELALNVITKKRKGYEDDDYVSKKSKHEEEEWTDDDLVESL
T3 sequence (P51948 whole entry partner): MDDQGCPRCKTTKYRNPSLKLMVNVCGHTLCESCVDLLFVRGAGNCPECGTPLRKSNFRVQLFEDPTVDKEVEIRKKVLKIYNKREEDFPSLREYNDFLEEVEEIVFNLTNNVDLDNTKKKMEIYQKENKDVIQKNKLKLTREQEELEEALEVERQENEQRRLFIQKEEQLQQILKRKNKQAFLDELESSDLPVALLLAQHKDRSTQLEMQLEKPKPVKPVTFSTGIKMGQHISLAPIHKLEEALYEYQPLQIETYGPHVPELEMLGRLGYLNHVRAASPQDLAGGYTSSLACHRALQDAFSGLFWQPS
T2 sequence (P49336 whole entry): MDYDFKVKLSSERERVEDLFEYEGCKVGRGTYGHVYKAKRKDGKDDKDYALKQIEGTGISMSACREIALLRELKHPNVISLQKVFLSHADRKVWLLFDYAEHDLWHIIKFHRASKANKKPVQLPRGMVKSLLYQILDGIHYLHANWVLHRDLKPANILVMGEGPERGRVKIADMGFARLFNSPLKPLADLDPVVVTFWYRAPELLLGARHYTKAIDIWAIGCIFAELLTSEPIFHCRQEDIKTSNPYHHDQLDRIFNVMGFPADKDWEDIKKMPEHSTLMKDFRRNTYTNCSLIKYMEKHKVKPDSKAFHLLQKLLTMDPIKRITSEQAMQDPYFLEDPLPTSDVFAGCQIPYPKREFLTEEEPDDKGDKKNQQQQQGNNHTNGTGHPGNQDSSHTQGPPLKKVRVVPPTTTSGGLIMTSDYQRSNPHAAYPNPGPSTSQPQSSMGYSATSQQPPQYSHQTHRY
T2 sequence (P24863 whole entry partner): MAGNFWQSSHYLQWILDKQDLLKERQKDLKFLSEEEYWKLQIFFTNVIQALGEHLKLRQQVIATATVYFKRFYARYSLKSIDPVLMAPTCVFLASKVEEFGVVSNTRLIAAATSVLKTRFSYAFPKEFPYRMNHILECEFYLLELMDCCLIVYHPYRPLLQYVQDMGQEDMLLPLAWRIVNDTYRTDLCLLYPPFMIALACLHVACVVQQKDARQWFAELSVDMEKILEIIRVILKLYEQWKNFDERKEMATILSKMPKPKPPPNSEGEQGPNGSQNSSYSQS
CDK5/p25, sequence (Q00535 whole entry): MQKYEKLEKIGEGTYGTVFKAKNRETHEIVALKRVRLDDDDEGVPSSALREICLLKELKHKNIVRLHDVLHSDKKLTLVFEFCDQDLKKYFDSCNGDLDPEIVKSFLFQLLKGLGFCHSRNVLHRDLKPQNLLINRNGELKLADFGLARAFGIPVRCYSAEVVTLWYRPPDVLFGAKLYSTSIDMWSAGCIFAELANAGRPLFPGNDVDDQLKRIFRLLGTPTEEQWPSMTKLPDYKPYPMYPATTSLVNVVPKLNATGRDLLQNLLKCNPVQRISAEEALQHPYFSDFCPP
CDK5/p25, sequence (Q15078 99-307 partner limits assumed): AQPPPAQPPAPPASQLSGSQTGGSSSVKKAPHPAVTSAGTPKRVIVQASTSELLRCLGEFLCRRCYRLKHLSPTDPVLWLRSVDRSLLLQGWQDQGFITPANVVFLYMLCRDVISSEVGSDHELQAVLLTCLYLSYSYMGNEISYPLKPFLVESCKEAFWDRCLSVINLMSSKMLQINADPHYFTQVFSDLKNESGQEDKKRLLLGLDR
CDK9/cyclin K, sequence (P50750 whole entry): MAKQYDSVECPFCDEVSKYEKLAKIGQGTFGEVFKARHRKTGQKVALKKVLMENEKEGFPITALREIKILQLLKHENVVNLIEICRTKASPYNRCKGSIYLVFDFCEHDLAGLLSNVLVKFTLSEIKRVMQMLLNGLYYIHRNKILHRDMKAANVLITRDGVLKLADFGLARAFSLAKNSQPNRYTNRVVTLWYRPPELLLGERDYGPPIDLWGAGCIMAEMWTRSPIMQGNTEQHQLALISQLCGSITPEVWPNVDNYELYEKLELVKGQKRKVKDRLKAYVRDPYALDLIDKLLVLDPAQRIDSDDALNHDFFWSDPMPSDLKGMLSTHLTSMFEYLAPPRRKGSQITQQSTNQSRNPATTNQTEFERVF
CDK9/cyclin K, sequence (O75909 whole entry partner): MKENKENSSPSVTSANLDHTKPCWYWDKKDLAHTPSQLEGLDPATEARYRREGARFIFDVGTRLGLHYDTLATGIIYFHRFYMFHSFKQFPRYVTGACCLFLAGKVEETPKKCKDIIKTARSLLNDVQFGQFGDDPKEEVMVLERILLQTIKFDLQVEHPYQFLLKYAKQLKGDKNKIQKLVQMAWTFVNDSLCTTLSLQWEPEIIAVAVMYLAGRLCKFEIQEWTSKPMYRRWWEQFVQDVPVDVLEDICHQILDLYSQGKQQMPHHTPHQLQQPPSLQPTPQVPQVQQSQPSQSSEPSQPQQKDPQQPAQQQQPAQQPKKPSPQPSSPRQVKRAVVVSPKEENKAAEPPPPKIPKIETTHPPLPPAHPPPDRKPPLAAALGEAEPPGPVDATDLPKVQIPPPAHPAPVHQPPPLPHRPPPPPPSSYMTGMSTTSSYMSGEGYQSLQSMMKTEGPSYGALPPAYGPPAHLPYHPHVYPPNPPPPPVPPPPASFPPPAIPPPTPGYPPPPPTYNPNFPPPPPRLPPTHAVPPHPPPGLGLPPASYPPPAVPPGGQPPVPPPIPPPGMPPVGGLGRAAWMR
CDK9/cyclin T1, sequence (P50750 whole entry): as the sequence (P50750 whole entry) above
CDK9/cyclin T1, sequence (O60563 whole entry partner): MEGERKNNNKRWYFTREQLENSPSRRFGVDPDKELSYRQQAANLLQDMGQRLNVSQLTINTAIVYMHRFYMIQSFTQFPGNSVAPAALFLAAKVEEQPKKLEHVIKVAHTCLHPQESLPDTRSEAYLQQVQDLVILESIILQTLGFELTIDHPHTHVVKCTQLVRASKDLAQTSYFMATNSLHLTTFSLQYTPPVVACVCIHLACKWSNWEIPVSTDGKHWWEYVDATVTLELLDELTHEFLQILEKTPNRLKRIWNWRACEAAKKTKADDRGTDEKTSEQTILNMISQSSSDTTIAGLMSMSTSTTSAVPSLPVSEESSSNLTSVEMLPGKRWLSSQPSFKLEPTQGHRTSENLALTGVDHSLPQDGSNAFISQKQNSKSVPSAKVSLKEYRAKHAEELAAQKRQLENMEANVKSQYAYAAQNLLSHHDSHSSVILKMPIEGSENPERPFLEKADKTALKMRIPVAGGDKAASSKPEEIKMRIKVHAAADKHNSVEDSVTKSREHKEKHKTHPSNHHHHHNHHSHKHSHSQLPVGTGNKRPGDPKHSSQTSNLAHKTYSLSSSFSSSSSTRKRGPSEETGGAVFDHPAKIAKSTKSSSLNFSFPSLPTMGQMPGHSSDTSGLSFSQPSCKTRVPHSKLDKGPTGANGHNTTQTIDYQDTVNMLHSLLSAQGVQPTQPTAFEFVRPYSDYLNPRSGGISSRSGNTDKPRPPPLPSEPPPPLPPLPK
Procedure for CDK5/p25: (§1) Compounds of the invention were assayed for activity against a variety of different kinases at Life Technologies™ (Grand Island, N.Y.) using their commercially available Adapta® (for CDK7, CDK9/cyclin T1, and IRAK1 kinases), Z′-Lyte® (for CDK1, CDK2, CDK5/p25, CDK5/p35, JNK1 and JNK2 kinases), and LanthaScreen Eu® (for CDK8, CDK9/cyclin K and MLK3) kinase assay services. Test compounds were tested at 100 nM and 1 μM final concentrations in 1% DMSO against all kinases except CDK7. For CDK7, test compounds were tested at concentrations ranging from 10 μM to 0.514 nM in a series of 3-fold serial dilutions. […] The co-factors used for each kinase in the assays were as follows: CDK1: cyclin B; CDK2: cyclin A; CDK5: p25 or p35 as indicated; CDK7: cyclin H and MNAT1; CDK8: cyclin C; CDK9: cyclin K or cyclin T1 as indicated; IRAK1: Histone H3 (1-20) peptide; JNK1: none required; JNK2: none required; MLK3: none required.
Procedure for CDK9/cyclin K: as §1
Procedure for CDK9/cyclin T1: as §1

As for `CN(C)C/C=C/C(=O)Nc1ccc(C(=O)NC2CCCC(Nc3ncc(Cl)c(-c4c[nH]c5ccccc45)n3)C2)cc1` (stereo not shown) [Compound 100, (E)-N-(3-((5-chloro-4-(1H-indol-3-yl)pyrimidin-2-yl)amino)cyclohexyl)-4-(4-(dimethylamino)but-2-enamido)benzamide], the pIC50 is less than 6.00 on CDK2; 6.00 to 7.00 on CDK8; less than 6.00 against CDK5/p25; 6.00 to 7.00 on CDK9/cyclin K; greater than 7.00 on CDK7 (Table 1C, co-factors cyclin H and MNAT1, read-out: CDK7 IC50); greater than 7.00 at CDK7 (Table 2, co-factors cyclin H and MNAT1, read-out: CDK7 (calculated IC50)). Moreover, the pIC50 against CDK9/cyclin T1 was 6.00 to 7.00.

In general, pIC50 refers to the IC50 on a negative log10 scale, so that one unit is a factor of ten.
